Laboratory results as given in US20250154109A1, “SODIUM CHANNEL BLOCKING COMPOUNDS, DERIVATIVES THEREOF, AND METHODS OF THEIR USE” (LATIGO BIOTHERAPEUTICS, INC, priority 2022, published 2025).
Read-outs that look alike come from different tables or passages of the source.

Target: human Nav1.8 (Homo sapiens, UniProt Q9Y5Y9)
Experiment: SyncroPatch384PE assay (automated patch clamp)
Assay type: cell-based
Settings: human Nav1.8/b3 CHO cells
[1] = inactivated state block (P2 measurement), read-out: P2 IC50
[2] = resting state block (P1 measurement), read-out: P1 IC50

human Nav1.8, sequence (Q9Y5Y9 whole entry): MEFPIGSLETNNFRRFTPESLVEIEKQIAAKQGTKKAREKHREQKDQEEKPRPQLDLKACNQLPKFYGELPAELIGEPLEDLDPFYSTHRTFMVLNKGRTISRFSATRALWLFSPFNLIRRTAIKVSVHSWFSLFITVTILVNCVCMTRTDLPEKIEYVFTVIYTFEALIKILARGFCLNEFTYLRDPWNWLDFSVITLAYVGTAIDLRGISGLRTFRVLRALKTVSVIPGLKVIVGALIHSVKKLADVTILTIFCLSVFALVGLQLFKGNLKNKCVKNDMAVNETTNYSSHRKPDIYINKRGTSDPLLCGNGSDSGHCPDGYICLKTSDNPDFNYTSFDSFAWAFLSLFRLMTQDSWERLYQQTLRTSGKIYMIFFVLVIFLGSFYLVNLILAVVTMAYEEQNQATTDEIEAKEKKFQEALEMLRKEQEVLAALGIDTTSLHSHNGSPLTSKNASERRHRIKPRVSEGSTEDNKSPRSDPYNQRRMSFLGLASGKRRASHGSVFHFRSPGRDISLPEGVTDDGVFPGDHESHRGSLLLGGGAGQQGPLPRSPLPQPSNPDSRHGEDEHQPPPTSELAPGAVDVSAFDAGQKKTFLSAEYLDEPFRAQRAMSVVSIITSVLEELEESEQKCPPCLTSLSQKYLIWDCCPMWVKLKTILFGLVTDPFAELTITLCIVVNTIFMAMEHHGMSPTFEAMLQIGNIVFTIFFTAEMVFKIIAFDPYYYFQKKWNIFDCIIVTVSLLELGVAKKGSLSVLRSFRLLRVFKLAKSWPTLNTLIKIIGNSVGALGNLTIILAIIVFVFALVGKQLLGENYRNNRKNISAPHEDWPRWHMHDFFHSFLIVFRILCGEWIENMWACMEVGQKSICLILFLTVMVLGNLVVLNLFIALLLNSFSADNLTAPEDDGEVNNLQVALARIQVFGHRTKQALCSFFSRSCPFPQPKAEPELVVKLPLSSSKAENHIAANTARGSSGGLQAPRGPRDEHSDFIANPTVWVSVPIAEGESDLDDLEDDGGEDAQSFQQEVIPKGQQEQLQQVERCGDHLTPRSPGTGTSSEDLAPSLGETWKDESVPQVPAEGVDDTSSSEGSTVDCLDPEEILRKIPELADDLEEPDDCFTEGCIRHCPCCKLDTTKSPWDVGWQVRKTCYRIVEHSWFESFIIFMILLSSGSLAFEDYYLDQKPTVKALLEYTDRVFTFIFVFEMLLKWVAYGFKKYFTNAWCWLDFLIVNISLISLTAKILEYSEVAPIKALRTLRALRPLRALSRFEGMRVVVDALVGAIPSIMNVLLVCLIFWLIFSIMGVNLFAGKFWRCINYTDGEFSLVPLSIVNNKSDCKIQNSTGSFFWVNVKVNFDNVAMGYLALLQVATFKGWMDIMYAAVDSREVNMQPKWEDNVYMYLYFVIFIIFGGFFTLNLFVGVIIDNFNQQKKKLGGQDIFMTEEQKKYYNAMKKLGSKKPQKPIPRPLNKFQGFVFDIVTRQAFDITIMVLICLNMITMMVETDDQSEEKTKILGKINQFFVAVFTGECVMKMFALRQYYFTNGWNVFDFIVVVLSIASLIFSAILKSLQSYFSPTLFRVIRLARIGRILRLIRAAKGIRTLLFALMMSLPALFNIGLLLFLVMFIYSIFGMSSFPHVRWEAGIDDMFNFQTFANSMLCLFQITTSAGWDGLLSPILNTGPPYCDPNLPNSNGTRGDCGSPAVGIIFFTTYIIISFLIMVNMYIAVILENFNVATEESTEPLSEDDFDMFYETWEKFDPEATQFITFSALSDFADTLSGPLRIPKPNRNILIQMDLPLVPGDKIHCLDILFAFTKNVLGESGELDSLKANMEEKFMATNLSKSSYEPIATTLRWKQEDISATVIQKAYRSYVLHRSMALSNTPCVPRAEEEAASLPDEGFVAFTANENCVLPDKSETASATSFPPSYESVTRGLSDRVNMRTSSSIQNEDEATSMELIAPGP

SMILES	IC50 [1] [nM]	IC50 [2] [nM]
CC#Cc1cnc(N2CCCC(F)(F)CC2)c(C(=O)Nc2cccc([S@](C)(=N)=O)c2)c1C [Example 127, (R)-2-(4,4-difluoroazepan-1-yl)-4-methyl-N-(3-(S-methylsulfonimidoyl)phenyl)-5-(prop-1-yn-1-yl)nicotinamide]	≤ 5	≤ 5
Cc1c(C(F)(F)F)nnc(N2CCCC(F)(F)CC2)c1C(=O)NC12CC(C(N)=O)(C1)C2 [Example 128, N-(3-carbamoylbicyclo[1.1.1]pentan-1-yl)-3-(4,4-difluoroazepan-1-yl)-5-methyl-6-(trifluoromethyl)pyridazine-4-carboxamide]	> 200	> 200
Cc1c(C(N)=O)cnc(N2CCCC(F)(F)CC2)c1C(=O)Nc1cccc([S@](C)(=N)=O)c1 [Example 129, (R)-2-(4,4-difluoroazepan-1-yl)-4-methyl-N3-(3-(S-methylsulfonimidoyl)phenyl)pyridine-3,5-dicarboxamide]	> 200	> 200
Cc1c(Br)c(C(F)(F)F)nc(N2CCCC(F)(F)CC2)c1C(=O)Nc1cccc([S@](C)(=N)=O)c1 [Example 130, (R)-5-bromo-2-(4,4-difluoroazepan-1-yl)-4-methyl-N-(3-(S-methylsulfonimidoyl)phenyl)-6-(trifluoromethyl)nicotinamide]	≤ 5	≤ 5
Cc1c(C(=O)Nc2cccc([S@](C)(=N)=O)c2)c(N2CCCC(F)(F)CC2)nc(C(F)(F)F)c1-c1ccc(C#N)cc1 [Example 131, (R)-5-(4-cyanophenyl)-2-(4,4-difluoroazepan-1-yl)-4-methyl-N-(3-(S-methylsulfonimidoyl)phenyl)-6-(trifluoromethyl)nicotinamide]	≤ 5	≤ 5
Cc1c(-c2cnn(C)c2)cnc(N2CCCC(F)(F)CC2)c1C(=O)NC12CC(C(N)=O)(C1)C2 [Example 132, N-(3-carbamoylbicyclo[1.1.1]pentan-1-yl)-2-(4,4-difluoroazepan-1-yl)-4-methyl-5-(1-methyl-1H-pyrazol-4-yl)nicotinamide]	> 200	> 200
Cc1c(C(=O)Nc2cccc([S@](C)(=N)=O)c2)c(N2CCCC(F)(F)CC2)nc(C(F)(F)F)c1-c1cnn(C)c1 [Example 133, (R)-2-(4,4-difluoroazepan-1-yl)-4-methyl-5-(1-methyl-1H-pyrazol-4-yl)-N-(3-(S-methylsulfonimidoyl)phenyl)-6-(trifluoromethyl)nicotinamide]	≤ 5	≤ 5
Cc1c(-c2ccc(C#N)cc2)cnc(N2CCCC(F)(F)CC2)c1C(=O)NC12CC(C(N)=O)(C1)C2 [Example 134, N-(3-carbamoylbicyclo[1.1.1]pentan-1-yl)-5-(4-cyanophenyl)-2-(4,4-difluoroazepan-1-yl)-4-methylnicotinamide]	> 200	> 200
Cc1nc(C(F)(F)F)nc(N2CCCC(F)(F)CC2)c1C(=O)Nc1cccc([S@](C)(=N)=O)c1 [Example 135, (R)-4-(4,4-difluoroazepan-1-yl)-6-methyl-N-(3-(S-methylsulfonimidoyl)phenyl)-2-(trifluoromethyl)pyrimidine-5-carboxamide]	5 to 50	5 to 50
Cc1c(C#N)cnc(N2CCCC(F)(F)CC2)c1C(=O)NC12CC(C(N)=O)(C1)C2 [Example 136, N-(3-carbamoylbicyclo[1.1.1]pentan-1-yl)-5-cyano-2-(4,4-difluoroazepan-1-yl)-4-methylnicotinamide]	≤ 5	≤ 5
Cc1c(C#N)nnc(N2CCCC(F)(F)CC2)c1C(=O)Nc1cccc([S@](C)(=N)=O)c1 [Example 139, (R)-6-cyano-3-(4,4-difluoroazepan-1-yl)-5-methyl-N-(3-(S-methylsulfonimidoyl)phenyl)pyridazine-4-carboxamide]	100 to 200	> 200
Cc1c(N2CC3(COC3)C2)nnc(N2CCCC(F)(F)CC2)c1C(=O)Nc1cccc([S@](C)(=N)=O)c1 [Example 140, (R)-3-(4,4-difluoroazepan-1-yl)-5-methyl-N-(3-(S-methylsulfonimidoyl)phenyl)-6-(2-oxa-6-azaspiro[3.3]heptan-6-yl)pyridazine-4-carboxamide]	> 200	> 200
Cc1c(-c2cnn(C)c2)nnc(N2CCCC(F)(F)CC2)c1C(=O)NC12CC(C(N)=O)(C1)C2 [Example 141, N-(3-carbamoylbicyclo[1.1.1]pentan-1-yl)-3-(4,4-difluoroazepan-1-yl)-5-methyl-6-(1-methyl-1H-pyrazol-4-yl)pyridazine-4-carboxamide]	≤ 5	≤ 5
Cc1c(-c2cnn(C)c2)cnc(N2CCCC(F)(F)CC2)c1C(=O)NC12CC(C(=O)O)(C1)C2 [Example 142, 3-(2-(4,4-difluoroazepan-1-yl)-4-methyl-5-(1-methyl-1H-pyrazol-4-yl)nicotinamido)bicyclo[1.1.1]pentane-1-carboxylic acid]	≤ 5	≤ 5
Cc1nc(C(F)(F)F)nc(N2CCCC(F)(F)CC2)c1C(=O)Nc1cccc([S@@](C)(=N)=O)c1 [Example 143, (S)-4-(4,4-difluoroazepan-1-yl)-6-methyl-N-(3-(S-methylsulfonimidoyl)phenyl)-2-(trifluoromethyl)pyrimidine-5-carboxamide]	50 to 100	50 to 100
Cc1c(-c2cn[nH]c2)cnc(N2CCCC(F)(F)CC2)c1C(=O)Nc1cccc([S@](C)(=N)=O)c1 [Example 144, (R)-2-(4,4-difluoroazepan-1-yl)-4-methyl-N-(3-(S-methylsulfonimidoyl)phenyl)-5-(1H-pyrazol-4-yl)nicotinamide]	> 200	> 200
Cc1c(Br)cnc(N2CCCC(F)(F)CC2)c1C(=O)Nc1cccc([S@@](C)(=N)=O)c1 [Example 145, (S)-5-bromo-2-(4,4-difluoroazepan-1-yl)-4-methyl-N-(3-(S-methylsulfonimidoyl)phenyl)nicotinamide]	≤ 5	≤ 5
Cc1nn(C)cc1-c1cnc(N2CCCC(F)(F)CC2)c(C(=O)Nc2cccc([S@](C)(=N)=O)c2)c1C [Example 146, (R)-2-(4,4-difluoroazepan-1-yl)-5-(1,3-dimethyl-1H-pyrazol-4-yl)-4-methyl-N-(3-(S-methylsulfonimidoyl)phenyl)nicotinamide]	> 200	> 200
Cc1c(-c2cnco2)cnc(N2CCCC(F)(F)CC2)c1C(=O)Nc1cccc([S@](C)(=N)=O)c1 [Example 147, (R)-2-(4,4-difluoroazepan-1-yl)-4-methyl-N-(3-(S-methylsulfonimidoyl)phenyl)-5-(oxazol-5-yl)nicotinamide]	5 to 50	5 to 50
Cc1cc(C#N)nc(N2CCCC(F)(F)CC2)c1C(=O)Nc1cccc([S@](C)(=N)=O)c1 [Example 148, (R)-6-cyano-2-(4,4-difluoroazepan-1-yl)-4-methyl-N-(3-(S-methylsulfonimidoyl)phenyl)nicotinamide]	5 to 50	5 to 50
Cc1c(N2CC(F)(F)C2)cnc(N2CCCC(F)(F)CC2)c1C(=O)Nc1cccc([S@](C)(=N)=O)c1 [Example 149, (R)-2-(4,4-difluoroazepan-1-yl)-5-(3,3-difluoroazetidin-1-yl)-4-methyl-N-(3-(S-methylsulfonimidoyl)phenyl)nicotinamide]	5 to 50	5 to 50
